Results reported in US20130331345A1, “PUERARIN HYDRATES, PREPARATION METHODS AND USES THEREOF” (priority 2010, published 2013).

Test system: cerebral ischemia-reperfusion
Experiment: Effects on cerebral ischemia-reperfusion in rats (NO, NOS, MDA, SOD in brain tissue)
Assay type: in vivo, Wistar male rats
Details: rats after ischemia-reperfusion, 400 mg/kg intragastric twice per day, monohydrate
Procedure: 36 Wistar male rats, body weight 250-300 g, were randomly divided into 3 groups: sham operation group, ischemia-reperfusion group, and the present invention drug group, 12 rats per group. The rats of the present invention drug group were intragastrically administered with physiological saline suspension of puerarin monohydrate (prepared by method of Example 1) in a dose of 400 mg/kg, volume of 2 ml, twice per day, for consecutive 7 days, and cerebral ischemia operation was performed 60 min after the last administration; the rats of sham operation group and the ischemia-reperfusion group were administered separately with isometric physiological saline 2 ml.
The rats were anesthetized with 10% chloral hydrate (3.5 ml/kg) by intraperitoneal injection, fixed at supine position, and molded by a modified Zea Longa suture method referring to document (Journal of Shanghai Jiaotong University (medical Science), 2007, 27(10): 1218-1222); suture was inserted only 10 mm in sham operation group, and the other steps were the same as the model groups. […] After successful modeling, the rats of the present invention drug group were administered twice per day in the same dose as above, while those of the sham operation group and the ischemia-reperfusion group were administered isometric physiological saline 2 ml. Sutures were drawn out 2 hours after modeling, the rats were executed 24 hours after reperfusion, and their brain weights were measured rapidly. 10% brain tissue homogenates were prepared at low temperature with physiological saline, centrifuged under 3000 r/min for 10 min at low temperature, the deposit was discarded, and the supernatant was taken and measured with commercial kits of SOD, MDA, NO, NOS according to their specifications to determine contents or activities of SOD, MDA, NO, NOS.

[1] = listed as The present invention drug
[2] = listed as the present invention drug

O=c1c(-c2ccc(O)cc2)coc2c([C@@H]3O[C@H](CO)[C@@H](O)[C@H](O)[C@H]3O)c(O)ccc12 [Sample 1, puerarin monohydrate]
MDA in brain tissue [1]: 2.54 ± 0.57 nmol/mL | NO in brain tissue [1]: 26 ± 6.13 µmol/L | NOS in brain tissue [1]: 23 ± 5.22 U/ml | SOD in brain tissue [1]: 243 ± 19.66 U/ml | MDA in brain tissue [2]: significantly decreased | NO in brain tissue [2]: significantly decreased | NOS in brain tissue [2]: decreased | SOD in brain tissue [2]: increased significantly
